Eleven compounds from ChEMBL document CHEMBL1201862, “PubChem BioAssay data set” (2004) can be followed below.

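Tested at 5 concentrations; 48 h exposure; 96-well plates; endpoints linearly interpolated, else capped at highest concentration. Abbreviation: GI50, concentration required for 50% inhibition of growth.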 The source made the active and inactive calls. Rule as the data show it: active = GI50 up to about 1.1 µM and inactive = higher. Where only a bound is given, the exact number is not on record here.

Some test systems named below: RPMI-8226; NCI-H460; HCT-15; OVCAR-8; SF-295; SK-MEL-28; SF-268; SW-620; BT-549; M14; HCT-116; UO-31; NCI-H23; UACC-257; HOP-92; OVCAR-3; TK-10; HT-29; U-251; Malme-3M.
What all share (test): NCI anticancer screen, dose series, 48 h

Take `Cc1n[nH]c(=O)n1/N=C/c1ccc(F)cc1`: the GI50 with RPMI-8226 is > 100 µM (inactive); in the assay on NCI-H460, > 100 µM (inactive); with HCT-15 it was greater than 100 µM; in the assay on OVCAR-8, > 100 µM (inactive); in the assay with SF-295, > 100 µM (inactive); in the assay with SK-MEL-28, > 100 µM (inactive). In addition, the GI50 in the assay with SF-268, with SW-620, in the assay with BT-549, with M14, with HCT-116 and in the assay on UO-31 was > 100 µM (inactive) throughout. Further, the GI50 with NCI-H23, in the assay on UACC-257, with HOP-92 and with OVCAR-3 was > 100 µM (inactive) each time.
Take `Oc1c(Br)cc(/C=C/c2ccnc(/C=C/c3cc(Br)c(O)c(Br)c3)c2)cc1Br`: the GI50 with RPMI-8226 was 20.7 µM (inactive); with NCI-H460, 12.6 µM (inactive); in the assay with HCT-15, 23.6 µM; in the assay with TK-10, 27.2 µM (inactive); in the assay with HT-29, 21.7 µM (inactive); in the assay on OVCAR-8, 26.8 µM (inactive). Further, the GI50 in the assay on SF-295 was 27.5 µM (inactive); in the assay on SK-MEL-28 it was 39 µM (inactive); in the assay with SF-268, 40.3 µM (inactive); in the assay on SW-620 it was 35.6 µM (inactive); with BT-549, 33.4 µM (inactive); in the assay on M14 it was 25.1 µM (inactive). The GI50 with HCT-116 is 17 µM (inactive); in the assay on U-251 it was 15.2 µM (inactive); in the assay on UO-31, 19.2 µM (inactive); in the assay with UACC-257, 26.2 µM (inactive); in the assay with HOP-92, 30.8 µM (inactive); in the assay on OVCAR-3 it was 19.7 µM (inactive).
Regarding `CCOC(=O)CCc1c(C)nc2c(C)c3c([nH]c4ccc(Cl)cc43)c(C)c2c1O`, the GI50 is 2.15 µM (inactive) in the assay with NCI-H460; 12.2 µM with HCT-15; 10.7 µM (inactive) with TK-10; 4.75 µM (inactive) with HT-29; 23.5 µM (inactive) in the assay on OVCAR-8; 5.55 µM (inactive) with SF-295. For the same compound, the GI50 in the assay with Malme-3M is 11.3 µM (inactive); with SK-MEL-28 it was 14.1 µM (inactive); in the assay on SF-268, 14.3 µM (inactive); in the assay with SW-620, 22.4 µM (inactive); with BT-549, 10.1 µM (inactive); with M14 it was 4.94 µM (inactive). Moreover, the GI50 in the assay on HCT-116 was 10.9 µM (inactive); in the assay with U-251 it was 11 µM (inactive); in the assay on UO-31 it was 16.1 µM (inactive); in the assay with NCI-H23 it was 19.2 µM (inactive); with UACC-257, 6 µM (inactive); in the assay on HOP-92, 15.8 µM (inactive).
For `CCCCCCCN1C(=O)C(O)(c2ccc(C3(O)C(=O)N(CCCCCCC)c4ccccc43)s2)c2ccccc21` (stereo unspecified), the GI50 in the assay with RPMI-8226 was 2.04 µM (inactive); in the assay on NCI-H460, 1.79 µM (inactive); in the assay on HCT-15 it was 2.12 µM; in the assay on TK-10 it was 2.25 µM (inactive); in the assay with HT-29 it was 1.78 µM (inactive); in the assay with OVCAR-8 it was 2.04 µM (inactive). Moreover, the GI50 in the assay with SF-295 was 1.85 µM (inactive); with SK-MEL-28 it was 2.07 µM (inactive); in the assay on SF-268 it was 2.11 µM (inactive); in the assay with SW-620 it was 2.18 µM (inactive); in the assay with BT-549, 2.33 µM (inactive); in the assay on M14 it was 1.79 µM (inactive). Further, the GI50 is 1.73 µM (inactive) in the assay on HCT-116; 1.74 µM (inactive) with U-251; 1.57 µM (inactive) with UO-31; 2.07 µM (inactive) with UACC-257; 1.84 µM (inactive) with HOP-92.
In the case of `Oc1c2cccc1Cc1cccc3c1OCCOCCOCCOCCOc1c(cccc1Cc1cccc(c1O)C3)C2`, the GI50 in the assay on RPMI-8226 is > 100 µM (inactive); with HCT-15, greater than 100 µM; in the assay on TK-10, > 100 µM (inactive); in the assay with HT-29 it was 54.3 µM (inactive); in the assay on OVCAR-8 it was 85.7 µM (inactive); with SF-295, 9.29 µM (inactive). Further, the GI50 in the assay on SK-MEL-28 was > 100 µM (inactive); with SF-268, > 100 µM (inactive); in the assay with SW-620, > 100 µM (inactive); in the assay with BT-549, > 100 µM (inactive); in the assay on M14 it was > 100 µM (inactive); in the assay with HCT-116, 7.43 µM (inactive). The GI50 in the assay on U-251 was > 100 µM (inactive); in the assay with UO-31, > 100 µM (inactive); in the assay with NCI-H23 it was > 100 µM (inactive); in the assay with UACC-257, 66.2 µM (inactive); with HOP-92 it was > 100 µM (inactive); in the assay with OVCAR-3 it was 0.897 µM (active).
Regarding `CC[C@](O)(C(=O)O)c1cc2n(c(=O)c1CO)Cc1cc3ccccc3nc1-2`, the GI50 was 0.025 µM (active) in the assay on NCI-H460; 0.0964 µM with HCT-15; 0.282 µM (active) in the assay on TK-10; 0.0461 µM (active) in the assay on HT-29; 0.025 µM (active) in the assay on SF-295; 0.0975 µM (active) in the assay on Malme-3M. Moreover, the GI50 in the assay with BT-549 was 0.0791 µM (active); in the assay on M14, 0.00292 µM (active); with HCT-116, 0.0308 µM (active); with U-251, 0.025 µM (active); in the assay on UO-31, 0.0372 µM (active); in the assay on NCI-H23, 0.025 µM (active). The GI50 in the assay on HOP-92 is 0.112 µM (active).
On to `CCOC(=O)C1=c2[nH]c3cccc4cccc(c43)n2C=C(C(C)=O)C1CC(C)=O` (stereo unspecified), for which the GI50 was > 100 µM (inactive) in the assay with RPMI-8226; > 100 µM (inactive) in the assay on NCI-H460; 44 µM with HCT-15; > 100 µM (inactive) in the assay with TK-10; 46.2 µM (inactive) in the assay with OVCAR-8; > 100 µM (inactive) in the assay with SF-295. The GI50 was > 100 µM (inactive) with SK-MEL-28; 40.6 µM (inactive) with SW-620; > 100 µM (inactive) in the assay with BT-549; > 100 µM (inactive) in the assay on M14; 34.4 µM (inactive) with HCT-116; > 100 µM (inactive) in the assay on U-251. Also, the GI50 with UO-31 was 37.4 µM (inactive); in the assay on NCI-H23, 69.7 µM (inactive); in the assay on UACC-257, > 100 µM (inactive); in the assay on HOP-92, 36.6 µM (inactive); with OVCAR-3, > 100 µM (inactive).
In the case of `CCOC(=O)c1c(C)[n+]([O-])c2cc(Cl)c(Cl)cc2[n+]1[O-]`, the GI50 was 14.4 µM (inactive) with RPMI-8226; 16.3 µM (inactive) in the assay on NCI-H460; 14.3 µM in the assay with HCT-15; 18.1 µM (inactive) with TK-10; 33.5 µM (inactive) in the assay with HT-29; 19.7 µM (inactive) in the assay on OVCAR-8. The GI50 in the assay on SF-295 is 29.4 µM (inactive); in the assay on SK-MEL-28, 29.4 µM (inactive); with SF-268 it was 24.5 µM (inactive); with BT-549, 19.8 µM (inactive); with M14, 23.1 µM (inactive); in the assay with HCT-116, 18.9 µM (inactive). Further, the GI50 with U-251 is 32.1 µM (inactive); in the assay on UO-31, 24.5 µM (inactive); with NCI-H23, 10.7 µM (inactive); in the assay on UACC-257 it was 16.9 µM (inactive); in the assay with HOP-92 it was 3.54 µM (inactive); in the assay on OVCAR-3, 15.6 µM (inactive).
With `C=C(CCC(C(=O)O)C1CCC2(C)C3=C(CCC12C)C1(C)CCC(O)C(C)(C)C1CC3)C(C)C` (stereo unspecified), the GI50 was 19.9 µM (inactive) in the assay on RPMI-8226; 21.1 µM (inactive) with NCI-H460; 21.8 µM in the assay with HCT-15; > 100 µM (inactive) in the assay with TK-10; 32.7 µM (inactive) in the assay with HT-29; 19.1 µM (inactive) with OVCAR-8. The GI50 is 38.5 µM (inactive) in the assay on SF-295; 33.3 µM (inactive) in the assay with SK-MEL-28; 34.4 µM (inactive) in the assay on SF-268; 50.9 µM (inactive) in the assay with SW-620; 83.6 µM (inactive) in the assay on BT-549; 40.8 µM (inactive) in the assay on M14. The GI50 in the assay with HCT-116 was 28.6 µM (inactive); in the assay on U-251, 22 µM (inactive); in the assay on UO-31 it was > 100 µM (inactive); in the assay on NCI-H23, 29.6 µM (inactive); with UACC-257 it was 97.5 µM (inactive); in the assay on HOP-92, 60.8 µM (inactive). Besides, in the assay on OVCAR-3, the GI50 is 45.6 µM (inactive).
Take `O=c1n(-c2ccccc2)c(=O)n2n1C1Cc3ccccc3C12` (stereo unspecified): the GI50 in the assay on RPMI-8226 is > 100 µM (inactive); with NCI-H460 it was > 100 µM (inactive); with HCT-15 it was greater than 100 µM; in the assay on TK-10, > 100 µM (inactive); in the assay on HT-29, > 100 µM (inactive); in the assay with OVCAR-8 it was > 100 µM (inactive). The GI50 in the assay on SF-295, in the assay on SK-MEL-28, in the assay on SF-268, in the assay on SW-620, with BT-549 and in the assay with M14 was > 100 µM (inactive) in each case. In addition, the GI50 with HCT-116, in the assay with U-251, with UO-31, with NCI-H23, in the assay with UACC-257 and in the assay on HOP-92 was > 100 µM (inactive) throughout. Besides, the GI50 with OVCAR-3 is > 100 µM (inactive).
For the compound `Cc1ccc(Cc2nn(C)c(=O)n2N)cc1`, the GI50 in the assay with RPMI-8226 was > 100 µM (inactive); in the assay on NCI-H460, > 100 µM (inactive); in the assay with HCT-15 it was greater than 100 µM; in the assay with TK-10 it was > 100 µM (inactive); with HT-29, > 100 µM (inactive); in the assay with OVCAR-8, > 100 µM (inactive). Moreover, the GI50 in the assay on SF-295, with SK-MEL-28, in the assay with SW-620, in the assay with BT-549, with M14 and with HCT-116 was > 100 µM (inactive) throughout. Besides, the GI50 with U-251, in the assay with UO-31, in the assay with NCI-H23, with UACC-257, with HOP-92 and with OVCAR-3 was > 100 µM (inactive) throughout.
